What all share (format): cell-based, murine and human
What all share (conditions): GAL4-PPAR LBD chimera

One experiment has as its target T1, PPAR-alpha (UniProt Q07869).
T1 sequence (Q07869 1-468): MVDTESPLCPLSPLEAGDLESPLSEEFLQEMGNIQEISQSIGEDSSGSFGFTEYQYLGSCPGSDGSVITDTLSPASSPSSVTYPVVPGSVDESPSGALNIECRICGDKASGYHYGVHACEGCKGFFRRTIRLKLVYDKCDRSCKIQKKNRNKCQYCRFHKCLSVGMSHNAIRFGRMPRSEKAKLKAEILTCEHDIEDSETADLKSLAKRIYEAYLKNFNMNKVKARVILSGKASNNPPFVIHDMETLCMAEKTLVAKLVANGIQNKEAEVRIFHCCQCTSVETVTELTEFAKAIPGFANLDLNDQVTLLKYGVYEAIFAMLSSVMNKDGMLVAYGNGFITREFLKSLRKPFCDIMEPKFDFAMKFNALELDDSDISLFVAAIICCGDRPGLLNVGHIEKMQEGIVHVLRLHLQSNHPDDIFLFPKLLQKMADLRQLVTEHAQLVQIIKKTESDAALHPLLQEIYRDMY
In words: PPAR-alpha transactivation assay (GAL4 chimera, luciferase reporter) in CV-1 cells. An outline of the steps:
(§1)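 CV-1 cells transiently transfected with murine or human PPAR-alpha, -gamma or -delta ligand-binding domain fused to GAL4 DNA-binding domain plus a GAL4-site luciferase reporter. After replating in phenol-red-free DME with 5% delipidated calf serum, cells were exposed to compound 20-24 h; luciferase read-out gave EC50.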
On the technique in general: Reporter assays use an easily measured gene product as a stand-in for the process of interest.

The next experiment deals with T2, PPAR-gamma (UniProt P37231).
T2 sequence (P37231 1-505): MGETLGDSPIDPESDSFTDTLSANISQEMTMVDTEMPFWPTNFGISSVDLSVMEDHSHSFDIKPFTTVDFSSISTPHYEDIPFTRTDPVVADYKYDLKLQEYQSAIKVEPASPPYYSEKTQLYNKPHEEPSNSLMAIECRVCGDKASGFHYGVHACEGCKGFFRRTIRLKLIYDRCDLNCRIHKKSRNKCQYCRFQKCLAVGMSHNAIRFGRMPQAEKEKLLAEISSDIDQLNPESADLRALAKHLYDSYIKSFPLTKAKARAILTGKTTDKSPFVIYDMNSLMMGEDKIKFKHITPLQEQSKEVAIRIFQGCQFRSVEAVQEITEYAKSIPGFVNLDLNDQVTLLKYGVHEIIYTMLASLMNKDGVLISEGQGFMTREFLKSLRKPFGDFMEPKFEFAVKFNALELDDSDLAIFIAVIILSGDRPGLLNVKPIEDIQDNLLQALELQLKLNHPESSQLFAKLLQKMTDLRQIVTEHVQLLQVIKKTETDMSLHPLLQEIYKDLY
As to the kind of experiment: PPAR-gamma transactivation assay (GAL4 chimera, luciferase reporter) in CV-1 cells. In short, it runs like this: as §1

Another experiment addresses T3, PPAR-delta (UniProt Q03181).
T3 sequence (Q03181 1-441): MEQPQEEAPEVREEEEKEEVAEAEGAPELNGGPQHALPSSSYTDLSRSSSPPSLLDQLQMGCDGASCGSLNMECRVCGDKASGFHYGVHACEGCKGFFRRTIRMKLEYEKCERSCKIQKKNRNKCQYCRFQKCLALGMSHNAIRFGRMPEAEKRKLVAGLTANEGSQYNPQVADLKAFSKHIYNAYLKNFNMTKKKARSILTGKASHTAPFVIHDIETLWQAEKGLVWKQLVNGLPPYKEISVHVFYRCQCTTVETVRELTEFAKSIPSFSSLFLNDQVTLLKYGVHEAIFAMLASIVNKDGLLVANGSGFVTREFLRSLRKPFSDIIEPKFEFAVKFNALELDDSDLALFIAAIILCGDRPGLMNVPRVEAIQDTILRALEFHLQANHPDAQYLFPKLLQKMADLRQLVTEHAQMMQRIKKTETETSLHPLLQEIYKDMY
In words: PPAR-delta transactivation assay (GAL4 chimera, luciferase reporter) in CV-1 cells. In short, it runs like this: as §1

Turning to `C[C@@H]1CN(c2ccc(OC(F)(F)F)cc2)C[C@H](C)N1S(=O)(=O)c1cccc2c1CC(C(N)=O)C2` (stereo partly drawn) [Example 108, 4-[cis-2,6-dimethyl-4-(4-trifluoromethoxy-phenyl)-piperazine-1-sulfonyl]-indan-2-carboxylic acid amide], the half-maximal effective concentration (EC50) was 5 to 100 µM on PPAR-alpha, 5 to 100 µM on PPAR-gamma and below 5 µM on PPAR-delta.
On to `C[C@@H]1CN(c2ccc(OC(F)(F)F)cc2)C[C@H](C)N1S(=O)(=O)c1cccc2c1CC(c1nnn[nH]1)C2` (stereo partly drawn) [Example 109, cis-2,6-dimethyl-1-[2-(1H-tetrazol-5-yl)-indane-4-sulfonyl]-4-(4-trifluoromethoxy-phenyl)-piperazine], for which the EC50 was above 100 µM at PPAR-alpha, 5 to 100 µM on PPAR-gamma and below 5 µM at PPAR-delta.
For `C[C@@H]1CN(Cc2ccc(OC(F)(F)F)cc2)C[C@H](C)N1S(=O)(=O)c1ccc2scc(CC(=O)O)c2c1` [Example 110, {5-[cis-2,6-dimethyl-4-(4-trifluoromethoxy-benzyl)-piperazine-1-sulfonyl]-benzo[b]thiophen-3-yl}-acetic acid], in that order: above 100 µM, 5 to 100 µM and below 5 µM.
For `C[C@@H]1CN(Cc2ccc(Cl)c(Cl)c2)C[C@H](C)N1S(=O)(=O)c1cccc2c1CC(C(=O)O)C2` (stereo partly drawn) [Example 111], in that order: above 100 µM, 5 to 100 µM and below 5 µM.
In the case of `O=C(O)C1Cc2cccc(S(=O)(=O)N3CCN(c4cccc(OCC(F)(F)F)c4)CC3)c2C1` (stereo not drawn) [Example 112, 4-{4-[3-(2,2,2-trifluoro-ethoxy)-phenyl]-piperazine-1-sulfonyl}-indan-2-carboxylic acid], the EC50 on PPAR-alpha, at PPAR-gamma and at PPAR-delta was 5 to 100 µM each time.
In the case of `O=C(O)C1Cc2cccc(S(=O)(=O)N3CCN(c4cccc(OC(F)(F)F)c4)CC3)c2C1` (stereo not drawn) [Example 113, 4-[4-(3-Trifluomethoxy-phenyl)-piperazine-1-sulfonyl]-indan-2-carboxylic acid], the EC50 was 5 to 100 µM at PPAR-alpha, 5 to 100 µM on PPAR-gamma and below 5 µM on PPAR-delta.
On to `O=C(O)C1Cc2cccc(S(=O)(=O)N3CCN(c4ccc(OCC(F)(F)F)cc4)CC3)c2C1` (stereo not drawn) [Example 114, 4-{4-[4-(2,2,2-Trifluoro-ethoxy)-phenyl]-piperazine-1-sulfonyl}-indan-2-carboxylic acid], for which the half-maximal effective concentration (EC50) at PPAR-alpha, on PPAR-gamma and on PPAR-delta was 5 to 100 µM each time.
Take `C[C@@H]1CN(c2cccc(OC(F)(F)F)c2)C[C@H](C)N1S(=O)(=O)c1cccc2c1CC(C(=O)O)C2` (stereo partly drawn) [Example 115, 4-[cis-2,6-dimethyl-4-(3-trifluoromethoxyphenyl)piperazin-1-ylsulfonyl]-2,3-dihydro-1H-indene-2-carboxylic acid]: the values for the EC50 at PPAR-alpha, at PPAR-gamma and at PPAR-delta were above 100 µM, 5 to 100 µM and below 5 µM, respectively.
The matching figures for `C[C@H]1CN(S(=O)(=O)c2cccc3c2CC(C(=O)O)C3)[C@@H](C)CN1c1ccc(C(F)(F)F)cn1` (stereo partly drawn) [Example 116, 4-[2S,5S-dimethyl-4-(5-trifluoromethyl-pyridin-2-yl)-piperazine-1-sulfonyl]-indan-2(R,S)-carboxylic acid]: 5 to 100 µM, 5 to 100 µM and below 5 µM.
For `O=C(O)C1Cc2cccc(S(=O)(=O)N3C4CCCC3CN(c3ccc(OC(F)(F)F)cc3)C4)c2C1` (stereo not drawn) [Example 117, 4-[3-(4-trifluoromethoxy-phenyl)-3,9-diaza-bicyclo[3.3.1]nonane-9-sulfonyl]-indan-2-carboxylic acid], in that order: 5 to 100 µM, 5 to 100 µM and below 5 µM.
For the compound `C[C@@H]1CN(c2ccc(Cl)c(Br)c2)C[C@H](C)N1S(=O)(=O)c1cccc2c1CC(C(=O)O)C2` (stereo partly drawn) [Example 120, 4-(4-(3-bromo-4-chlorophenyl)-cis-2,6-dimethylpiperazin-1-ylsulfonyl)-2,3-dihydro-1H-indene-2-carboxylic acid], the EC50 on PPAR-alpha is above 100 µM; on PPAR-gamma, above 100 µM; on PPAR-delta, below 5 µM.
In the case of `C[C@@H]1CN(c2cc(F)c(C(F)(F)F)c(F)c2)C[C@H](C)N1S(=O)(=O)c1cccc2c1CC(C(=O)O)C2` (stereo partly drawn) [Example 121, 4-(4-(3,5-Difluoro-4-(trifluoromethyl)phenyl)-cis-2,6-dimethylsulfonyl)-2,3-dihydro-1H-indene-2-carboxylic acid], the EC50 at PPAR-alpha is 5 to 100 µM; at PPAR-gamma, above 100 µM; at PPAR-delta it was below 5 µM.
Consider `C[C@@H]1CN(c2ccc(C(F)(F)F)c(Br)c2)C[C@H](C)N1S(=O)(=O)c1cccc2c1CC(C(=O)O)C2` (stereo partly drawn) [Example 122, 4-(4-(3-Bromo-4-(trifluoromethyl)phenyl)-cis-2,6-dimethylpiperazin-1-ylsulfonyl)-2,3-dihydro-1H-indene-2-carboxylic acid], for which the EC50 is above 100 µM on PPAR-alpha, above 100 µM at PPAR-gamma and below 5 µM on PPAR-delta.
Regarding `C[C@@H]1CN(c2cc(F)cc(F)c2Cl)C[C@H](C)N1S(=O)(=O)c1cccc2c1CC(C(=O)O)C2` (stereo partly drawn) [Example 123, 4-(4-(2-Chloro-3,5-difluorophenyl)-cis-2,6-dimethylpiperazin-1-ylsulfonyl)-2,3-dihydro-1H-indene-2-carboxylic acid], the figures for the concentration giving a half-maximal response (EC50) on PPAR-alpha, at PPAR-gamma and on PPAR-delta were above 100 µM, above 100 µM and 5 to 100 µM, respectively.
Regarding `C[C@@H]1CN(c2cc(F)c(Cl)c(F)c2)C[C@H](C)N1S(=O)(=O)c1cccc2c1CC(C(=O)O)C2` (stereo partly drawn) [Example 124, 4-(4-(4-Chloro-3,5-difluorophenyl)-cis-2,6-dimethylpiperazin-1-ylsulfonyl)-2,3-dihydro-1H-indene-2-carboxylic acid], the EC50 at PPAR-alpha was above 100 µM; on PPAR-gamma it was above 100 µM; at PPAR-delta it was below 5 µM.
Regarding `O=C(O)C1Cc2cccc(S(=O)(=O)N3C4CSCC3CN(c3ccc(OC(F)(F)F)cc3)C4)c2C1` (stereo not drawn) [Example 125, 4-(7-(4-(Trifluoromethoxy)phenyl)-3-thia-7,9-diazabicyclo|3.3.1|nonan-9-ylsulfonyl)-2,3-dihydro-1H-indene-2-carboxylic acid], the EC50 at PPAR-alpha was above 100 µM; at PPAR-gamma, above 100 µM; at PPAR-delta, below 5 µM.
With `C[C@@H]1CN(c2ccc(Cl)cc2)C[C@H](C)N1S(=O)(=O)c1cccc2c1CC(C(=O)O)C2` (stereo partly drawn) [Example 126, 4-[4-(4-Chlorophenyl)-cis-2,6-dimethylpiperazin-1-ylsulfonyl]-2,3-dihydro-1H-indene-2-carboxylic acid], the concentration for a half-maximal effect (EC50) on PPAR-alpha was above 100 µM; on PPAR-gamma, above 100 µM; at PPAR-delta, below 5 µM.
Turning to `C[C@@H]1CN(c2ccc(Cl)c(OC(F)(F)F)c2)C[C@H](C)N1S(=O)(=O)c1cccc2c1CC(C(=O)O)C2` (stereo partly drawn) [Example 131, 4-|4-(4-Chloro-3-trifluoromethoxyphenyl)-cis-2,6-dimethylpiperazine-1-ylsulfonyl|-2,3-dihydro-1H-indene-2-carboxylic acid], the figures for the EC50 on PPAR-alpha, on PPAR-gamma and on PPAR-delta were above 100 µM, above 100 µM and below 5 µM, respectively.
As for `C[C@@H]1CN(c2ccc(Cl)c(F)c2)C[C@H](C)N1S(=O)(=O)c1cccc2c1CC(C(=O)O)C2` (stereo partly drawn) [Example 132, 4-|4-(4-Chloro-3-fluorophenyl)-cis-2,6-dimethylpiperazin-1-ylsulfonyl|-2,3-dihydro-1H-indene-2-carboxylic acid], the concentration for a half-maximal effect (EC50) at PPAR-alpha is above 100 µM; on PPAR-gamma, above 100 µM; on PPAR-delta, below 5 µM.

As a reminder, the EC50 is the midpoint of the concentration-response curve. A lower EC50 goes with an effect from little substance.
